Test results taken from patent publication US20220409593A1 (ARKUDA THERAPEUTICS, priority 2019, published 2022).

system: secreted mouse PGRN; test: progranulin induction cellular assay (PGRN assay, ELISA-based readout); settings: Mus musculus, progranulin secreted into cell culture medium, cells named in method: mouse primary microglia, primary cortical neurons, BV-2
Protocol: Cellular Assays: To measure the efficacy of compounds, a progranulin induction cellular assay in mouse primary microglia (pMG), primary cortical neurons, and BV-2 cell lines is used. BV-2 cells are split the day before plating into a 96well plate format at approximately 80%. Cells should be plated the day before and allowed for 1 hour attachment period and for 16 hour incubation. Levels of progranulin secreted into the cell culture medium or retained in the cell lysate can be quantified using an ELISA-based readout and measurement of secreted mouse PGRN in the medium was assessed by the methodology published by Ghidoni et al. 2012. Standard ELISA kits to measure PGRN are available from vendors such as Adipogen, R&D, and Biovendor.
Table D below presents the results of a PGRN assay as described above.

Row | EC50 [nM] | Compound
1 | 406 | CN1CCC[C@H]([C@@H]2CN=C(N3CCc4ccccc4[C@@H]3c3ccc(F)cc3)O2)C1 (single isomer, unassigned) [Compound 3152]
2 | 940 | CN1CCC[C@H]([C@H]2CN=C(N3CCc4ccccc4[C@@H]3c3ccc(F)cc3)O2)C1 (single isomer, unassigned) [Compound 3153]
3 | 132 | Fc1ccc([C@H]2c3ccccc3CCN2C2=NC[C@@H](C3(F)CNC3)O2)cc1 (single isomer, unassigned) [Compound 3154]
4 | 192 | Fc1ccc([C@H]2c3ccccc3CCN2C2=NC[C@H](C3(F)CNC3)O2)cc1 (single isomer, unassigned) [Compound 3155]
5 | 99.8 | Fc1ccc([C@H]2c3ccccc3CCN2C2=N[C@@H](C3(F)CNC3)CO2)cc1 (single isomer, unassigned) [Compound 3156]
6 | 77.7 | Fc1ccc([C@H]2c3ccccc3CCN2C2=N[C@H](C3(F)CNC3)CO2)cc1 (single isomer, unassigned) [Compound 3157]
7 | 3580 | CN(C)[C@H]1C[C@]2(CN=C(N3CCc4ccccc4[C@@H]3c3ccc(F)cc3)O2)C1 (single isomer, unassigned) [Compound 3158]
8 | 209 | CN(C)[C@H]1C[C@@]2(CN=C(N3CCc4ccccc4[C@@H]3c3ccc(F)cc3)O2)C1 (single isomer, unassigned) [Compound 3159]
9 | 993 | NC[C@H]1C[C@@]2(CN=C(N3CCc4ccccc4[C@@H]3c3ccc(F)cc3)O2)C1 (single isomer, unassigned) [Compound 3160]
10 | 206 | NC[C@H]1C[C@]2(CN=C(N3CCc4ccccc4[C@@H]3c3ccc(F)cc3)O2)C1 (single isomer, unassigned) [Compound 3161]
11 | 237 | CN(C)[C@@H]1CC[C@@]2(CN=C(N3CCc4ccccc4[C@@H]3c3ccc(F)cc3)O2)C1 (single isomer, unassigned) [Compound 3163]
12 | 137 | CN(C)[C@@H]1CC[C@]2(CN=C(N3CCc4ccccc4[C@@H]3c3ccc(F)cc3)O2)C1 (single isomer, unassigned) [Compound 3164]
13 | 118 | c1ccc([C@H]2c3ccccc3CCN2C2=NC[C@@]3(CCNC3)O2)cc1 (single isomer, unassigned) [Compound 3165]
14 | 163 | c1ccc([C@H]2c3ccccc3CCN2C2=NC[C@]3(CCNC3)O2)cc1 (single isomer, unassigned) [Compound 3166]
15 | 200 | Fc1ccc([C@H]2c3ccccc3CCN2C2=NC[C@]3(CNC[C@@H]3F)O2)cc1 (single isomer, unassigned) [Compound 3169]
16 | 538 | Fc1ccc([C@H]2c3ccccc3CCN2C2=NC[C@@]3(CNC[C@@H]3F)O2)cc1 (single isomer, unassigned) [Compound 3170]
17 | 4020 | CN1CCC[C@]2(CN=C(N3CCc4ccccc4[C@@H]3c3ccc(F)c(F)c3)O2)C1 (stereo in doubt) [Compound 3029]
18 | 9650 | CN1CCC[C@@]2(CN=C(N3CCc4ccccc4[C@@H]3c3ccc(F)c(F)c3)O2)C1 (stereo in doubt) [Compound 3030]
19 | 4310 | CN1CCC[C@]2(CN=C(N3CCc4ccccc4[C@H]3c3ccc(F)c(F)c3)O2)C1 (stereo in doubt) [Compound 3031]
20 | 3430 | CN1CCC[C@@]2(CN=C(N3CCc4ccccc4[C@H]3c3ccc(F)c(F)c3)O2)C1 (stereo in doubt) [Compound 3032]
21 | 3860 | CN1CCC[C@]2(CN=C(N3CCc4ccccc4[C@@H]3c3cccc(F)c3F)O2)C1 (stereo in doubt) [Compound 3043]
22 | 5000 | CN1CCC[C@@]2(CN=C(N3CCc4ccccc4[C@H]3c3cccc(F)c3F)O2)C1 (stereo in doubt) [Compound 3044]
23 | 620 | Fc1ccc([C@H]2c3ccccc3CCN2C2=NCC3(CNCCC3F)O2)cc1 (stereo partly drawn) [Compound 3035, 10-fluoro-2-((S)-1-(4-fluorophenyl)-3,4-dihydroisoquinolin-2(1H)-yl)-1-oxa-3,7-diazaspiro[4.5]dec-2-ene]
24 | 19 | Fc1ccc([C@H]2c3ccccc3CCN2C2=NC[C@@]3(CCNC3)O2)cc1 [Compound 3049]
25 | 980 | Fc1ccc([C@H]2c3ccccc3CCN2C2=NC[C@@]3(CCCNC3)O2)cc1 [Compound 3051]
26 | 440 | Fc1ccc([C@H]2c3ccccc3CCN2C2=NC[C@]3(CCCNC3)O2)cc1 [Compound 3052]
27 | 1770 | CN1CCCC2(COC(N3CCc4ccccc4[C@@H]3c3ccc(F)cc3)=N2)C1 (stereo partly drawn) [Compound 3055]
28 | 110 | Fc1ccc([C@H]2c3ccccc3CCN2C2=NC3(CCNCC3)CO2)cc1 [Compound 3056, (S)-2-(1-(4-fluorophenyl)-3,4-dihydroisoquinolin-2(1H)-yl)-3-oxa-1,8-diazaspiro[4.5]dec-1-ene]

Row | Compound | EC50 [nM]
29 | Fc1cccc([C@H]2c3ccccc3CCN2C2=NC[C@@]3(CN4CCC3CC4)O2)c1 (stereo in doubt) [Compound 3020] | 9980
30 | Fc1cccc([C@H]2c3ccccc3CCN2C2=NC[C@]3(CN4CCC3CC4)O2)c1 (stereo in doubt) [Compound 3021] | > 10000
31 | Fc1cccc([C@@H]2c3ccccc3CCN2C2=NC[C@@]3(CN4CCC3CC4)O2)c1 (stereo in doubt) [Compound 3022] | 1490
32 | Fc1cccc([C@@H]2c3ccccc3CCN2C2=NC[C@]3(CN4CCC3CC4)O2)c1 (stereo in doubt) [Compound 3023] | 2170
33 | Fc1ccc([C@H]2c3ccccc3CCN2C2=NC[C@@]3(CN4CCC3CC4)O2)cc1F (stereo in doubt) [Compound 3024] | 3960
34 | Fc1ccc([C@H]2c3ccccc3CCN2C2=NC[C@]3(CN4CCC3CC4)O2)cc1F (stereo in doubt) [Compound 3025] | 4060
35 | Fc1ccc([C@@H]2c3ccccc3CCN2C2=NC[C@@]3(CN4CCC3CC4)O2)cc1F (stereo in doubt) [Compound 3026] | 310
36 | Fc1ccc([C@@H]2c3ccccc3CCN2C2=NC[C@]3(CN4CCC3CC4)O2)cc1F (stereo in doubt) [Compound 3027] | 2080
37 | Fc1cc(F)cc([C@H]2c3ccccc3CCN2C2=NC[C@]3(CN4CCC3CC4)O2)c1 (stereo in doubt) [Compound 3037] | 1000
38 | Fc1cc(F)cc([C@@H]2c3ccccc3CCN2C2=NC[C@@]3(CN4CCC3CC4)O2)c1 (stereo in doubt) [Compound 3038] | 3910
39 | Fc1ccc([C@H]2c3ccccc3CCN2C2=NO[C@@]3(C2)CN2CCC3CC2)cc1 [Compound 3028, 2((S)-1-(4-fluorophenyl)-3,4-dihydroisoquinolin-2(1H)-yl)-4-4-azaspiro[bicyclo[2.2.2]octane-2,5oxazole]] | > 3160
40 | Fc1ccc([C@H]2c3ccccc3CCN2C2=NC[C@H](C34CCN(CC3)CC4)O2)cc1 [Compound 3047, 2-((S)-1-(4-fluorophenyl)-3,4-dihydroisoquinolin-2(1H)-yl)-5-(quinuclidin-4-yl)-4,5-dihydrooxazole] | > 10000
41 | Fc1ccc([C@H]2c3ccccc3CCN2C2=NC[C@@H](C34CCN(CC3)CC4)O2)cc1 [Compound 3048, 2-((S)-1-(4-fluorophenyl)-3,4-dihydroisoquinolin-2(1H)-yl)-5-(quinuclidin-4-yl)-4,5-dihydrooxazole] | 110

same assay, conditions: progranulin secreted into cell culture medium, cells named in method: mouse primary microglia, primary cortical neurons, BV-2

Row | Compound | EC50 [nM]
42 | Fc1cc(F)cc([C@H]2c3ccccc3CCN2C2=NC[C@]3(CN4CCC3CC4)O2)c1 (stereo in doubt) [Compound 3039] | 1050
